Measurements: patent US20040091460A1, “Preparation of spheroids” (priority 2000, published 2004)
“Also recorded” adds a separate entry of the source.

Legend:
Type in all cases: cell-based
rat liver spheroids [1] = assay: Total protein content of rat liver spheroids after GalN exposure (Bradford); conditions: 24 hr exposure, vs control
Protocol: (§1) Liver spheroids were prepared from the liver of male Wistar rats by a two-step collagenase perfusion method described by Seglen P. O. ((1976). Preparation of isolated rat liver cells. Methods Cell. Biol. 13, 29-38) and modified by Lazar, A.; Peshwa, M. V., Wu, F. J., Chi, C. M., Cerra, F. B., and Hu, W. S. (1995). Extended liver-specific functions of procirne hepatocyte spheroids entrapped in collagen gel. In Vitro Cell Biol Anim. 31, 340-346). Viability of the isolated liver cells was determined by tyrpan blue dye exclusion i.e. an aliquot of isolated liver cells was mixed with an equal volume of trypan blue dye (1.0% w/v in isotonic saline) and incubated at room temperature for a minimum period of 5 minutes. Only isolated liver cell preparations with viability above 80% were used to prepare liver spheroids. […]
Spheroids were homogenized in homogenisation buffer containing NaH2PO42H2O, 2 mM; Na2HPO4, 2 mM; EDTA, 0.5 mM; and NaCl, 145 mM. Total protein was assessed according to the method developed by Bradford (1976). […] The protein content was determined by Micro Protein Kit (Sigma, Cat. No. 610-A). […] Absorbance was read on a microplate reader (Multiscan RC, Labsystem) at 595 nm.

rat liver spheroids [2] = assay: Albumin synthesis of liver spheroids after GalN exposure (BCG albumin kit, medium); conditions: 24 hr exposure
Protocol: as §1, with “spheroids. The cell suspension was diluted with culture medium (hepatocyte medium supplemented with 10% FCS, […] L-glutamine, 2 ng/ml insulin, 100 U/ml penicillin and 100 μg/ml streptomycin sulfate) to give a cell density of 5×10^5 cells/ml. The diluted cell suspension was dispersed into 6-well plates, 3 ml/well.” for “spheroids.”
Albumin concentration in the medium was determined by Albumin Reagent Kit (BCG, Sigma). […] Absorbance was read on a microplate reader (Multiscan RC, Labsystems) at 630 nm.

rat liver spheroids [3] = assay: Urea synthesis of liver spheroids after GalN exposure (Urea Nitrogen Kit, medium)
Protocol: as §1
Urea concentration in the media was determined using a Urea Nitrogen Kit (Cat. 640-A, Sigma). The method was modified in order to be suitable for a 96-well plate format and assays using a microplate reader. […] Total ammonium nitrogen of each sample was determined by adding 25 μl urease solution to each well followed by 10 μl of diluted medium. […] A blue colour developed and the absorbance was read on a microplate reader (Multiscan RC, Labsystems) at 590 nm. Free non-urea nitrogen was determined by adding 25 μl PBS without urease followed by 10 μl medium. […]

rat liver spheroids [4] = assay: Glutathione content of liver spheroids after GalN exposure (fluorimetric OPT method); conditions: 24 hr exposure
Protocol: as §1, with “spheroids. The cell suspension was diluted with culture medium (hepatocyte medium supplemented with 10% FCS, […] L-glutamine, 2 ng/ml insulin, 100 U/ml penicillin and 100 μg/ml streptomycin sulfate) to give a cell density of 5×10^5 cells/ml.” for “spheroids.”
Glutathione levels in spheroids were determined by the fluorimetric method (Hissin P. J., and Hilf (1976). A fluorimetric method for the determination of oxidised and reduced glutathione in tissues. Anal. Biochem. 74, 214-226). […] Absorbance was read on a fluorimeter at excitation wavelength 350 nm and emission wavelength 420 nm.

rat liver spheroids [5] = assay: Lactate dehydrogenase (LDH) leakage of liver spheroids after GalN exposure
Protocol: (§2) Liver spheroids were prepared from the liver of male Wistar rats by a two-step collagenase perfusion method described by Seglen P. O. ((1976). Preparation of isolated rat liver cells. Methods Cell. Biol. 13, 29-38) and modified by Lazar, A.; Peshwa, M. V., Wu, F. J., Chi, C. M., Cerra, F. B., and Hu, W. S. (1995). Extended liver-specific functions of procirne hepatocyte spheroids entrapped in collagen gel. In Vitro Cell Biol Anim. 31, 340-346). Viability of the isolated liver cells was determined by tyrpan blue dye exclusion i.e. an aliquot of isolated liver cells was mixed with an equal volume of trypan blue dye (1.0% w/v in isotonic saline) and incubated at room temperature for a minimum period of 5 minutes. Only isolated liver cell preparations with viability above 80% were used to prepare liver spheroids. The cell suspension was diluted with culture medium (hepatocyte medium supplemented with 10% FCS, […] L-glutamine, 2 ng/ml insulin, 100 U/ml penicillin and 100 μg/ml streptomycin sulfate) to give a cell density of 5×10^5 cells/ml. The diluted cell suspension was dispersed into 6-well plates, 3 ml/well. The plates were incubated at 37° C., in a 5% CO2 incubator on a gyrotatory shaker (New Brunswick) at an initial rotation speed of 85 rpm for the first 24 hr and 77 rpm thereafter. The plates were rotated at this speed for the duration of the study (up to 45 days, but typically 2-10 days). 1.5 ml of old medium was replaced with 2.0 ml fresh medium for each well every other day. Media exchange was carried out over the duration of the study (up to 45 days, but typically 2-10 days). […]
LDH in the media was assayed using the method developed by Korzeniewski and Callewaert (Korzeniwski, C., and Callewaert, D. M. (1983). An enzyme-release assay for natural cytotoxicity. J Immun. Meth. 64, 313-320). […] The resultant absorbance at 490 mn was monitored for 15 min, at 10 sec intervals on a microplate reader (Multiscan RC, Labsystem).

rat liver spheroids [6] = assay: Intoxification of liver spheroids: spheroid damage / functional change observed
Protocol: as §2, with “thereafter.” for “thereafter. The plates were rotated at this speed for the duration of the study (up to 45 days, but typically 2-10 days). 1.5 ml of old medium was replaced with 2.0 ml fresh medium for each well every other day. Media exchange was carried out over the duration of the study (up to 45 days, but typically 2-10 days).”

[7] = 0-40 mM GalN, trend over concentration

N[C@H]1C(O)O[C@H](CO)[C@H](O)[C@@H]1O (stereo partly drawn) [GalN, D-Galactosamine]
total protein content of spheroids (rat liver spheroids [1]; 20 mM or lower GalN): not affected; also recorded: did not decrease
total protein content of spheroids (rat liver spheroids [1]; 40 mM GalN, p<0.05): significantly decreased
albumin synthesis (rat liver spheroids [2]; [7]): concentration-dependent decrease
albumin synthesis (rat liver spheroids [2]; 40 mM GalN, vs control, p<0.05): decrease was significant
urea synthesis (rat liver spheroids [3]; 0-40 mM GalN, 24 hr after exposure, trend over concentration): concentration-dependent increase
synthetic rates of urea (rat liver spheroids [3]; 10 mM or higher GalN, 24 hr, vs control, p<0.05): significantly higher
glutathione content (rat liver spheroids [4]; 20 mM and lower GalN): did not decrease
glutathione content (rat liver spheroids [4]; 40 mM GalN, p<0.05): significantly decreased
LDH leakage (rat liver spheroids [5]; [7]): concentration-dependent increase
LDH leakage (rat liver spheroids [5]; 10 mM GalN, 24 hr, p<0.05): significantly increased
LDH leakage (rat liver spheroids [5]; 20 and 40 mM GalN, 4 hours after exposure, vs control, p<0.05): significant increase
functional change of liver spheroids (rat liver spheroids [6]; 20 mM GalN): caused a functional change
spheroid damage / cell death (rat liver spheroids [6]; 40 mM GalN (highest concentration), 24 hr exposure): caused acute cell death
